According to US20040071687A1, “Adult stem cell recruitment” (priority 2002, published 2004):

How the values were obtained:
human CD34+ cells = test: In vitro transmigration through reconstituted basement membranes (Matrigel transwell); type: cell-based; conditions: for migration of CD34+ cells: Matrigel-coated transwell, SDF-1 100 ng/ml in lower chamber, inhibitor in both chambers (CGS 27023A 1 nM; 5-phenyl-1,10-phenanthroline 1 mM)
Description: Substrate zymography. Supernatants from human MACS-isolated CD34^+ (5×10^3) cells were collected after overnight incubation in serum-free medium with/without SDF-1 (150 ng/ml R&D-Systems) or VEGF (50 ng/ml, PeproTech). MMP activity was determined by gelatin zymography (Lane et al., 2000).
In vitro transmigration through reconstituted basement membranes. […] CD34^+ cells were added to 8 μm pore Matrigel-coated (BD) transwell inserts (Costar, Cambridge Mass.). […] Transmigrated cells were quantified, placed in a clonogenic assay and in long-term cultures to measure the number of CAFC and LTC-IC (Jo et al., 2000).

[1] = test system: lethally irradiated syngeneic mice; test: Bone marrow repopulating assay with mobilized PBMCs; type: in vivo; conditions: for long-term engraftment of lethally irradiated syngeneic mice transplanted with mobilized PBMCs: PBMCs from SCID mice given AdSDF-1, AdVEGF or G-CSF, no MPI, n=12
Description: Bone marrow repopulating assay. Chemo/cytokine-mobilized PBMCs from SCID mice treated with/without MPI were collected on day 7. PBMCs from G-CSF-treated MMP-9^−/− and MMP-9^+/+ mice were collected on day 5. Mobilized PBMCs (10^5) were injected into lethally irradiated syngeneic animals (9.5 Gy). Survival was monitored.

[2] = test system: white blood cells and hematopoietic progenitors (CFU-Cs); test: Mobilization of white blood cells and progenitors (peripheral blood analysis, CFU-C); type: in vivo, mice; conditions: for mobilization of mature white blood cells and hematopoietic progenitors (CFU-Cs): plasma elevation in MMP-9+/+ mice, but not in MMP-9−/− mice
Description: (§1) Mobilization of bone marrow-derived cells by adenovirus delivered factors. […] The vector was injected i.v. as a single dose. Recombinant G-CSF (R&D Systems, MN) was administered subcutaneously daily from day 0-5 at 50 μg/kg body weight. Recombinant murine KitL (peproTech, NJ) was injected s.c. twice a day at 100 or 200 μg/kg body weight.
Peripheral blood analysis. Blood was collected with capillary pipettes by retro-orbital bleeding and WBC counts were determined by using a hemocytometer. Peripheral blood mononuclear cells (PBMCs) were isolated from heparinized blood after centrifugation over a discontinuous gradient using Lympholyte-M (Cedarlane, Ontario, Canada).
Progenitor assay. Peripheral blood mononuclear cells (10^5) were plated in Iscove's modified Dulbecco's medium (IMDM) containing 1.2% methylcellulose (Fisher Scientific, NJ), 30% FBS, 5×10^−3M 2-mercaptoethanol 2 mM L-glutamine, 0.5 mM hemin (Sigma), murine KitL (20 ng/ml), human erythropoietin (6U/ml) and murine IL-3 (50 ng/ml). Colonies (>50 cells) were scored after 7 days (37° C., 5% CO2).

[3] = test system: MS-5 murine stromal cells; test: Release of sKitL from stromal cell line cultures; type: cell-based; conditions: MS-5 cells, serum-free medium, 24 hours
Description: Stromal cell line cultures. […] Immunoassay for chemokines and cytokines. Plasma levels of SDF-1, VEGF, and sKitL were measured using commercially available ELISA (R&D Systems).

[4] = test system: lethally irradiated syngeneic recipients; test: CFU-S assay; type: in vivo; conditions: chemokine/cytokine-treated SCID mice given metalloproteinase inhibitor
Description: CFU-S assay. Mobilized peripheral blood mononuclear cells (10^5/mouse) of chemokine-treated SCID mice were injected i.v. into lethally irradiated syngeneic recipients (9 Gy). Spleens were removed 12 days later and fixed in Bouin's solution. The number of macroscopic spleen colonies was scored.

[5] = test system: MMP-9−/− and MMP-9+/+ mice; test: 5-FU myelosuppression: survival and hematopoietic recovery
Description: Administration of 5-FU. MMP-9^−/− and MMP-9^+/+ mice were injected with the cell cycle cytotoxic agent 5-fluorouracil (5-FU) to deplete cycling hematopoietic cells. In particular, 250 mg/kg body weight 5-FU (Pharmacia & Upjohn Company) was administered intravenously (i.v.). At specified time points, mice were sacrificed. Femurs were flushed and bone marrow cells were used for cell cycle analysis or subjected to magnetic bead isolation (MACS) (Miltenyi Biotec). Lineage-negative bone marrow cells were isolated by MACS after labeling the cells with a depletion cocktail of lineage-specific monoclonal antibodies (mAbs), including CD5, CD45R, CD11b, Gr-1, TER119, 7/4 (Stem Cell Technology, Canada). Lin^− cells were MACS isolated with mAb against Sca-1. […] For cell cycle analysis whole bone marrow cells of MMP-9^−/− and MMP-9^+/+ mice were labeled with Sca-1-FITC. Lin^−Sca-1^+bone marrow cells were labeled with c-Kit-FITC. Labeled bone marrow cells and Lin^−Sca-1^+cells were fixed in ice-cold ethanol for 30 min. After RNAase treatment (Sigma, MO), cells were stained with propidium iodide (Molecular-Probes, Oregon). The DNA content of Sca-1 and Lin^−Sca-1^+c-Kit^+ cells was determined by FACS (Coulter flow cytometer). […]
Peripheral blood analysis. Blood was collected with capillary pipettes by retro-orbital bleeding and WBC counts were determined by using a hemocytometer. […]

Sca-1+ bone marrow cells = test: Cell cycle analysis of bone marrow Sca-1+ cells after 5-FU; type: in vivo, mice
Description: Administration of 5-FU. MMP-9^−/− and MMP-9^+/+ mice were injected with the cell cycle cytotoxic agent 5-fluorouracil (5-FU) to deplete cycling hematopoietic cells. In particular, 250 mg/kg body weight 5-FU (Pharmacia & Upjohn Company) was administered intravenously (i.v.). At specified time points, mice were sacrificed. Femurs were flushed and bone marrow cells were used for cell cycle analysis or subjected to magnetic bead isolation (MACS) (Miltenyi Biotec). Lineage-negative bone marrow cells were isolated by MACS after labeling the cells with a depletion cocktail of lineage-specific monoclonal antibodies (mAbs), including CD5, CD45R, CD11b, Gr-1, TER119, 7/4 (Stem Cell Technology, Canada). Lin^− cells were MACS isolated with mAb against Sca-1. […] For cell cycle analysis whole bone marrow cells of MMP-9^−/− and MMP-9^+/+ mice were labeled with Sca-1-FITC. Lin^−Sca-1^+bone marrow cells were labeled with c-Kit-FITC. Labeled bone marrow cells and Lin^−Sca-1^+cells were fixed in ice-cold ethanol for 30 min. After RNAase treatment (Sigma, MO), cells were stained with propidium iodide (Molecular-Probes, Oregon). The DNA content of Sca-1 and Lin^−Sca-1^+c-Kit^+ cells was determined by FACS (Coulter flow cytometer).

MMP-9 = test: Immunohistochemistry for MMP-9 in bone marrow sections; type: in vivo; conditions: wild type mice; SDF-1 and VEGF by adenoviral vector, G-CSF recombinant
Description: Immunohistochemistry. Bone marrow sections were deparaffinized, rehydrated through an alcohol series immersed in 0.1% H2O2 and blocked using an Avidin and Biotin blocking kit (Vector, Burlingame, Calif.). For MMP-9 staining, the M.O.M. immunodetection kit (Vector) was used as recommended. Sections were incubated with MMP-9 mAb (clone 7-11C, Oncogene, MA) for 30 min, washed in PBS, incubated with a biotinylated horse anti-mouse IgG and incubated for 5 min with A&B reagents (Vector). Von Willebrand Factor (vWF) immunohistochemistry was performed on deparaffinized sections, treated with 3% H2O2, incubated with 0.05% Pronase E (Sigma). Sections were stained with anti-human vWF/HRP (Dako). Sections were developed with 3,3′-diaminobenzidine substrate and counterstained with eosin and hematoxylin.

[6] = test system: circulating endothelial progenitors (CEPs); test: Endothelial progenitor assay (CFU-EC, VEGFR2+ cells); type: in vivo; conditions: wild type mice, elevated plasma levels
Description: Endothelial progenitor assay. Circulating bone marrow-derived CEPs were quantified by colony forming unit-endothelial cell (CFU-EC) as previously described (Hattori et al. 2001a). Mobilized PBMCs were cultured in M199 media (GIBCO-BRL, Gaithersburg, Md.) supplemented with 20% FBS (HyClone, UT), ECGF (30 μg/ml), human FGF-basic (Sigma) and heparin. After 5 weeks of culture, adherent cells were scored for colonies (>10 cells). Endothelial colonies were identified by metabolic uptake of DiI-Acetylated-LDL (1 μg/ml; PerImmune Inc, Rockville, Md.) at 37° C. for 5 hours, and visualized fluorescence microscopy. The number of VEGFR2^+ cells was quantified by FACS using a Cy2-labeled mAb to VEGFR2 (clone DC101, ImClone, NY), (Hattori et al. 2001a).

sKitL = test: Plasma sKitL by ELISA after adenoviral vector or cytokine treatment; type: in vivo; conditions: MMP-9+/+ mice, five days after treatment
Description: as §1
Immunoassay for chemokines and cytokines. Plasma levels of SDF-1, VEGF, and sKitL were measured using commercially available ELISA (R&D Systems).

## c1ccc(-c2cc3cccnc3c3ncccc23)cc1 [5-phenyl-1,10-phenanthroline]
Human CD34+ cells
  migration of CD34+ cells: completely blocked

## COc1ccc(S(=O)(=O)N(Cc2cccnc2)[C@@H](C(=O)NO)C(C)C)cc1 [CGS 27023A]
[1]; recipients of PBMCs from MPI-treated mice
  time within which all recipient mice died: ≤ 19 days
[2]; MMP-9 competent mice (data not shown)
  white blood cell counts and chemokine-induced mobilization: decreased white blood cell counts and blocked chemokine-induced mobilization
[3]
  release of sKitL: blocked
[4]
  mobilization of hematopoietic cells with short-term repopulating potential (CFU-S): completely blocked
Human CD34+ cells
  migration of CD34+ cells: completely blocked

## O=c1[nH]cc(F)c(=O)[nH]1 [5-FU, 5-fluorouracil]
[5]; MMP-9+/+, mouse, in vivo, iv
  survival of 5-FU-treated mice: all of the MMP-9^+/+ mice survived
[5]; MMP-9−/− mice, single i.v. dose, n=16
  death of 5-FU-treated mice: 72%
Sca-1+ bone marrow cells; MMP-9+/+ mice, day 6 after 5-FU
  total number of Sca-1+ cells in S-phase: 2.2±0.05 ×10^5/femur
Sca-1+ bone marrow cells; MMP-9+/+ mice, day 10 after 5-FU
  total number of Sca-1+ cells in S-phase: 11.5±0.3 ×10^5/femur
Sca-1+ bone marrow cells; MMP-9−/− mice, day 6 after 5-FU
  total number of Sca-1+ cells in S-phase: 1.0±0.03 ×10^5/femur
Sca-1+ bone marrow cells; MMP-9−/− mice, day 10 after 5-FU
  total number of Sca-1+ cells in S-phase: 2.1±0.04 ×10^5/femur

## VEGF
MMP-9
  immunoreactive MMP-9 in bone marrow stromal and hematopoietic cells: increased immunoreactive MMP-9
[6]
  mobilization of circulating endothelial progenitors (CFU-EC, VEGFR2): increased the mobilization of circulating endothelial progenitors
sKitL
  plasma sKitL levels compared to untreated animals: increased plasma sKitL levels
[1]
  long-term engraftment of lethally irradiated syngeneic mice transplanted with mobilized PBMCs: 40%
[2]
  mobilization of mature white blood cells and hematopoietic progenitors (CFU-Cs): mobilized mature white blood cells
Human CD34+ cells; transwell migration assay, chemoattractant
  release of pro-MMP-9 and migration of human CD34+ progenitor and stem cells: stimulate the release of pro-MMP-9 and induce migration

B1: G-CSF: recombinant granulocyte colony stimulating factor (R&D Systems), s.c. daily day 0-5 (protein, UniProt P09919 31-207, looked up)
Granulocyte …: TPLGPASSLPQSFLLKCLEQVRKIQGDGAALQEKLVSECATYKLCHPEELVLLGHSLGIPWAPLSSCPSQALQLAGCLSQLHSGLFLYQGLLQALEGISPELGPTLDTLQLDVADFATTIWQQMEELGMAPALQPTQGAMPAFASAFQRRAGGVLVASHLQSFLEVSYRVLRHLAQP
MMP-9
  immunoreactive MMP-9 in bone marrow stromal and hematopoietic cells: increased immunoreactive MMP-9
sKitL
  plasma sKitL levels compared to untreated animals: increased plasma sKitL levels
[1]; MMP-9+/+ mice, PBMCs obtained day 5, n=8/group
  survival of transplanted recipients: 100%
[1]; MMP-9−/− mice treated with G-CSF, n=8/group
  day by which all mice died: ~18 days
[1]
  long-term engraftment of lethally irradiated syngeneic mice transplanted with mobilized PBMCs: 80%
[2]
  mobilization of mature white blood cells and hematopoietic progenitors (CFU-Cs): mobilized mature white blood cells
